The values below come from PubChem BioAssay (NCI).

Values joined by “and” are separate entries in the source; they are usually repeats but may differ in a detail not shown here. Identical values can stand only once.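 Where inhibition never reached the appropriate level, the endpoint shown equals the highest concentration tested. Otherwise, values were interpolated linearly from a five-concentration, 48-hour dose response in 96-well plates. GI50 is the concentration that inhibits growth by half. TGI denotes the concentration required for complete inhibition of growth.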 A value given as a limit tells only on which side of the number the result lay.

Some test systems named below: OVCAR-8 ovarian; SK-OV-3 ovarian; HCC-2998 colon; UACC-62 melanoma; NCI/ADR-RES ovarian; HL-60(TB) leukemia; SN12C renal; SK-MEL-2 melanoma; OVCAR-4 ovarian; RXF 393 renal; NCI-H226 lung; MALME-3M melanoma; PC-3 prostate; MDA-MB-435; 786-0 renal; TK-10 renal.
Holding throughout (test): NCI anticancer screen, dose series, 48 h

Consider `N=[N+]=CC(=O)CCC(NC(=O)C(CCC(=O)C=[N+]=N)NC(=O)CCC(N)C(=O)O)C(=O)O` (stereo unspecified), for which the TGI with OVCAR-8 ovarian, with SK-OV-3 ovarian, in the assay with HCC-2998 colon, with UACC-62 melanoma, with NCI/ADR-RES ovarian and in the assay on HL-60(TB) leukemia was more than 100 µM in each case. The TGI in the assay on SN12C renal, in the assay with SK-MEL-2 melanoma, with OVCAR-4 ovarian, in the assay on RXF 393 renal, with NCI-H226 lung and in the assay with MALME-3M melanoma was more than 100 µM throughout.
Consider `OC(c1cc(-c2ccc(Cl)cc2)nc2ccccc12)C1CCCCN1` (stereo unspecified), for which the TGI was 5.28 µM in the assay with OVCAR-8 ovarian; 3.79 µM in the assay on PC-3 prostate; 5.5 µM in the assay on SK-OV-3 ovarian; 4.35 µM in the assay with MDA-MB-435; 3.94 µM with HCC-2998 colon; 3.43 µM in the assay on UACC-62 melanoma. The TGI in the assay on NCI/ADR-RES ovarian stood at 5.79 µM; in the assay with HL-60(TB) leukemia it was 4.61 µM; in the assay with SN12C renal, 3.54 µM; in the assay with 786-0 renal, 3.92 µM; with OVCAR-4 ovarian it was 5.11 µM; in the assay with RXF 393 renal it was 0.315 µM. Besides, the TGI amounted to 9.85 µM in the assay with TK-10 renal, 39 µM with NCI-H226 lung and 2.94 µM in the assay on MALME-3M melanoma.
As to `Cc1ccc(/C=C2\CN(C)CC3C2=NN(c2ccccc2)C3c2ccc(C)cc2)cc1` (stereo unspecified), the TGI in the assay with OVCAR-8 ovarian, with PC-3 prostate, with SK-OV-3 ovarian, in the assay on MDA-MB-435, in the assay with HCC-2998 colon and in the assay on UACC-62 melanoma was more than 100 µM in each case. Besides, the TGI in the assay with NCI/ADR-RES ovarian, with SN12C renal, in the assay with SK-MEL-2 melanoma, in the assay with 786-0 renal, in the assay on OVCAR-4 ovarian and with RXF 393 renal was more than 100 µM each time. In addition, the TGI with TK-10 renal, in the assay on NCI-H226 lung and with MALME-3M melanoma was more than 100 µM each time.
As for `O=C(O)NCC1CCCCC1` (tested in a mixture with another compound), the TGI in the assay on OVCAR-8 ovarian is 31.7 µM; with PC-3 prostate, 46.4 µM; in the assay with MDA-MB-435, 58.1 µM; in the assay on UACC-62 melanoma it was 34.2 µM; in the assay on NCI/ADR-RES ovarian, 83.8 µM; in the assay on HL-60(TB) leukemia it was 38.5 µM. Besides, the TGI was 28.1 µM with SN12C renal; 30.9 µM in the assay with SK-MEL-2 melanoma; 77.3 µM in the assay on 786-0 renal; more than 100 µM in the assay on OVCAR-4 ovarian; 45.9 µM in the assay with RXF 393 renal; more than 100 µM with TK-10 renal. Also, the TGI in the assay with NCI-H226 lung was 41.2 µM; in the assay on MALME-3M melanoma, 7.15 µM.
On to `N#Cc1cc(-c2nc3c(F)cccc3s2)ccc1N`, for which the TGI with OVCAR-8 ovarian, with PC-3 prostate, in the assay with SK-OV-3 ovarian, in the assay on MDA-MB-435, in the assay on UACC-62 melanoma and with NCI/ADR-RES ovarian was more than 100 µM each time. The TGI in the assay with HL-60(TB) leukemia, in the assay with SN12C renal, in the assay with 786-0 renal, in the assay with OVCAR-4 ovarian, with RXF 393 renal and with TK-10 renal was more than 100 µM in each case. Also, the TGI in the assay with NCI-H226 lung and in the assay with MALME-3M melanoma was more than 100 µM in each case.
In the case of `C[n+]1ccc(Nc2ccc(NC(=O)c3ccc(Nc4cc[n+](C)c5ccc([N+](=O)[O-])cc45)cc3[N+](=O)[O-])cc2)cc1`, the TGI was more than 100 µM in the assay on OVCAR-8 ovarian; more than 100 µM with SK-OV-3 ovarian; more than 100 µM with HCC-2998 colon; > 90.4 µM and 63.6 µM in the assay on UACC-62 melanoma; more than 100 µM with NCI/ADR-RES ovarian; > 47.7 µM and 69.9 µM in the assay with HL-60(TB) leukemia. Besides, the TGI is more than 100 µM in the assay with SN12C renal; more than 100 µM with SK-MEL-2 melanoma; 77.4 µM in the assay with 786-0 renal; more than 100 µM with OVCAR-4 ovarian; more than 100 µM in the assay with RXF 393 renal; more than 100 µM in the assay with TK-10 renal. For the same compound, the TGI with NCI-H226 lung is 99.7 µM and > 100 µM; with MALME-3M melanoma, 61.2 µM and 53.9 µM. Besides, the GI50 in the assay on HL-60(TB) leukemia was 4.7 µM and 10.3 µM.
Regarding `C1CSC(=[N+]2CC[N+](=C3SCCS3)CC2)S1`, the TGI in the assay on OVCAR-8 ovarian, with SK-OV-3 ovarian, with HCC-2998 colon, in the assay with UACC-62 melanoma, in the assay with HL-60(TB) leukemia and in the assay with SN12C renal was more than 100 µM each time. Also, the TGI in the assay on SK-MEL-2 melanoma, in the assay with 786-0 renal, with OVCAR-4 ovarian, in the assay with RXF 393 renal, with TK-10 renal and with MALME-3M melanoma was more than 100 µM throughout.
As to `Cc1cc2nc(N3C(=O)/C(=C/c4ccccc4S)N=C3c3ccccc3)sc2cc1C`, the TGI with OVCAR-8 ovarian is more than 100 µM; with PC-3 prostate it was 58.1 µM; in the assay on SK-OV-3 ovarian, more than 100 µM; in the assay on MDA-MB-435 it was 95.9 µM; with HCC-2998 colon it was more than 100 µM; with UACC-62 melanoma, more than 100 µM. In addition, the TGI was 92.3 µM in the assay on NCI/ADR-RES ovarian; 82 µM in the assay with HL-60(TB) leukemia; 82.6 µM with SN12C renal; 56.7 µM with SK-MEL-2 melanoma; 60.5 µM in the assay on 786-0 renal; more than 100 µM in the assay with OVCAR-4 ovarian. Besides, the TGI with RXF 393 renal was 94.4 µM; in the assay with TK-10 renal it was more than 100 µM.
Regarding `COC(=O)c1cc2cc3c(c(O)c2c(=O)o1)O[C@@]1(Oc2c(O)c4c(c(O)c2[C@H]1OC1CC(OC)C(O)C(C)O1)C(=O)C=C(OC)C4=O)[C@H](O)C3` (stereo partly specified), the TGI in the assay with OVCAR-8 ovarian was 10.7 µM; with PC-3 prostate it was 12.2 µM; in the assay with SK-OV-3 ovarian, 17 µM; in the assay with MDA-MB-435 it was 7.47 µM; with UACC-62 melanoma, 1.78 µM; with NCI/ADR-RES ovarian, more than 100 µM. Also, the TGI in the assay with HL-60(TB) leukemia was 3.39 µM; with SN12C renal, 12.1 µM; in the assay with SK-MEL-2 melanoma, 10.5 µM; in the assay on OVCAR-4 ovarian it was 2.89 µM; in the assay on RXF 393 renal, 3.25 µM; in the assay with TK-10 renal it was 17.5 µM. Further, in the assay on NCI-H226 lung, the TGI is 17.1 µM.
Regarding `Nc1c(C(=O)Nc2ccc(C3=NCCN3)cc2)cccc1C(=O)Nc1ccc(C2=NCCN2)cc1`, the TGI with OVCAR-8 ovarian, in the assay on SK-OV-3 ovarian, with HCC-2998 colon, with UACC-62 melanoma, in the assay with NCI/ADR-RES ovarian and with HL-60(TB) leukemia was more than 100 µM each time. In addition, the TGI in the assay on SN12C renal, in the assay with SK-MEL-2 melanoma, with OVCAR-4 ovarian, in the assay on RXF 393 renal, in the assay with NCI-H226 lung and in the assay with MALME-3M melanoma was more than 100 µM each time.
